Test results taken from US12503475B2 (Centessa Pharmaceuticals (UK) Limited, priority 2020, dated 2025).

Target: T1, human orexin type 2 receptor (hOX2R) (Homo sapiens, UniProt O43614)
T1 construct: expressed in transfected cells
T1 sequence (O43614 1-444): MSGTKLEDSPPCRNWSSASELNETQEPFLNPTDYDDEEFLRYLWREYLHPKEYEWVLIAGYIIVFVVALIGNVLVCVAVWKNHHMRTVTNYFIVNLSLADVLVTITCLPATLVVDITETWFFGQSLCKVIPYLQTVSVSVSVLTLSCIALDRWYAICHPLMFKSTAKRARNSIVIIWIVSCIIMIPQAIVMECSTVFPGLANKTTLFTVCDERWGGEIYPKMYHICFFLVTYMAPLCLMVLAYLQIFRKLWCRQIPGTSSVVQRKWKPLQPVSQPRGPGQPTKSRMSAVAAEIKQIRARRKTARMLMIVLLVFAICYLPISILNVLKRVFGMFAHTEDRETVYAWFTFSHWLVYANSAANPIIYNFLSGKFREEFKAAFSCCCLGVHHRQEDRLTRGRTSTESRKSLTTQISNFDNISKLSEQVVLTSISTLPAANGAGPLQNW
Experiment: Measurement of orexin type 2 receptor agonist activity (FLIPR calcium fluorescence)
Assay type: cell-based
Settings: CHO cells expressing hOX2R, FLIPR calcium fluorescence; for EC50: read-out: hOx2 pEC50 (converted); for Emax: CHO, read-out: hOx2 Emax (%)
Method: The biological activity of the compounds of the present disclosure may be determined in cells stably expressing either orexin type 2 or orexin type 1 receptor. […] The agonist activity of a compound of the present disclosure may be determined by fluorescence value.
Stable cell line generation.
Measurement of orexin type 2 receptor agonist activity. […] As used herein, E. indicates the value at 10 μM concentration when orexin A is converted to a full agonist (maximum value of agonist activity. 100%).

SMILES	EC50	Emax	hOx2 Emax (%)
N#C[C@@]1(C(=O)N2CC3(CC3)[C@H](NS(=O)(=O)CF)[C@@H]2Cc2cccc(-c3ccccc3)c2F)CCO1 (single isomer, unassigned) [Compound 225]	1 to 10 nM	90 to 100%	
CCS(=O)(=O)NC1C(Cc2cc(F)cc(-c3ccccc3)c2F)N(C(=O)[C@H](O)CF)CC12CC2 (stereo in doubt) [Compound 356, N-((6S,7S)-6-((2,5-difluoro-[1,1′-biphenyl]-3-yl)methyl)-5-((S)-3-fluoro-2-hydroxypropanoyl)-5-azaspiro[2.4]heptan-7-yl)ethanesulfonamide]	10 to 100 nM	90 to 100%	
CS(=O)(=O)N[C@H]1[C@@H](Cc2cccc(-c3ccccc3)c2F)N(C(=O)[C@@H]2CCO2)CC12CC2 [Compound 19, N-((6R,7R)-6-((2-fluoro-[1,1′-biphenyl]-3-yl)methyl)-5-((S)-oxetane-2-carbonyl)-5-azaspiro[2.4]heptan-7-yl)methanesulfonamide]	> 1000 nM	90 to 100%	
CS(=O)(=O)N[C@@H]1[C@H](Cc2cccc(-c3ccccc3)c2F)N(C(=O)[C@@H]2CCO2)CC12CC2 [Compound 20, N-((6S,7S)-6-((2-fluoro-[1,1′-biphenyl]-3-yl)methyl)-5-((S)-oxetane-2-carbonyl)-5-azaspiro[2.4]heptan-7-yl)methanesulfonamide]	10 to 100 nM	90 to 100%	
CS(=O)(=O)N[C@@H]1[C@H](Cc2cccc(-c3ccccc3)c2F)N(C(=O)[C@H]2CCO2)CC12CC2 [Compound 21, N-((6S,7S)-6-((2-fluoro-[1,1′-biphenyl]-3-yl)methyl)-5-((R)-oxetane-2-carbonyl)-5-azaspiro[2.4]heptan-7-yl)methanesulfonamide]	1 to 10 nM	90 to 100%	

Continued, values first:

EC50	Emax	hOx2 Emax (%)	SMILES
10 to 100 nM	90 to 100%		C[C@H]1C[C@@H]1S(=O)(=O)N[C@H]1[C@@H](Cc2cccc(-c3ccccc3)c2)N(C(=O)[C@H]2CCO2)CC12CC2 (relative stereo) [Compound 312, (1S*,2S*)-N-(6R,7R)-6-([1,1′-biphenyl]-3-ylmethyl)-5-((R)-oxetane-2-carbonyl)-5-azaspiro[2.4]heptan-7-yl)-2-methylcyclopropane-1-sulfonamide]
10 to 100 nM	70 to 80%		CC(F)C(=O)N1CC2(CC2)C(NS(C)(=O)=O)C1Cc1cccc(-c2ccccc2)c1 (single isomer, unassigned) [Compound 1, N-(6-([1,1′-biphenyl]-3-ylmethyl)-5-(2-fluoropropanoyl)-5-azaspiro[2.4]heptan-7-yl)methanesulfonamide]
100 to 1000 nM		C (Emax ranging between 70 and 80)	CC(F)C(=O)N1CC2(CC2)C(NS(C)(=O)=O)C1Cc1cccc(-c2ccccc2)c1 (single isomer, unassigned) [Compound 2, N-(6-([1,1′-biphenyl]-3-ylmethyl)-5-(2-fluoropropanoyl)-5-azaspiro[2.4]heptan-7-yl)methanesulfonamide]
100 to 1000 nM	50 to 60%		CC(C)C(=O)N1CC2(CC2)[C@@H](NS(C)(=O)=O)[C@H]1Cc1cccc(-c2ccccc2)c1 [Compound 16, N-((6R,7R)-6-([1,1′-biphenyl]-3-ylmethyl)-5-isobutyryl-5-azaspiro[2.4]heptan-7-yl)methanesulfonamide]
10 to 100 nM	90 to 100%		CC(C)C(=O)N1CC2(CC2)[C@H](NS(C)(=O)=O)[C@@H]1Cc1cccc(-c2ccccc2)c1 [Compound 17, N-((6S,7S)-6-([1,1′-biphenyl]-3-ylmethyl)-5-isobutyryl-5-azaspiro[2.4]heptan-7-yl)methanesulfonamide]
100 to 1000 nM	90 to 100%		CS(=O)(=O)N[C@H]1[C@@H](Cc2cccc(-c3ccccc3)c2F)N(C(=O)[C@H]2CCO2)CC12CC2 [Compound 22, N-((6R,7R)-6-((2-fluoro-[1,1′-biphenyl]-3-yl)methyl)-5-((R)-oxetane-2-carbonyl)-5-azaspiro[2.4]heptan-7-yl)methanesulfonamide]
